Results published in patent US20240415845A1, “Compositions of Iboga Alkaloids and Methods of Treatment” (priority 2022, published 2024).

Legend:
Format in all cases: in vivo, human
[1] = tested on: male veterans with a history of TBI; test: Pseudo-continuous arterial spin labeling (pcASL) MRI of cerebral blood flow; details: baseline, first post-treatment scan and one month post-treatment; paired t-test; 18 subjects
Experimental: Arterial spin labeling (ASL) MR was used to measure cerebral blood flow in some of the subjects of the subjects enrolled in the study of Example 1. As described in Example 3, pseudo-continuous ASL (pcASL) was performed on the subject at baseline, about 1 week after treatment, and one-month after treatment. […] A first metric of interest was change in net quantity (mL/100 g tissue/min) of blood entering different regions of the brain. Images of the left posterior orbital gyrus, left anterior insula, left and right cerebral white matter at baseline and 1-week post treatment (images not shown) were analyzed and compared. […] A paired t-test across 3 time points—baseline (pre-treatment), 1 week post-treatment, and 1 month post-treatment—was employed.
Arterial spin labeling (ASL) MRW was used to measure cerebral blood flow.
A first metric of interest was change in net quantity (mL/100 g tissue/min) of blood entering different regions of the brain. Images of the left posterior orbital gyrus, left anterior insula, left and right cerebral white matter at baseline and 1-2 days post treatment (images not shown) were analyzed and compared.
A paired t-test across 3 time points-baseline (pre-treatment), 1-2 days post-treatment, and one month post-treatment-was employed.

[2] = tested on: special operations veterans with combat and/or blast exposure; test: Self-reported alcohol consumption and intoxication; details: one month following treatment
Experimental: Alcohol consumption in the enrolled subjects was also evaluated. At baseline, 11 of the 30 enrolled subjects reported drinking at least four days per week and 12 of the 30 enrolled subjects reported drinking at least four days per week over the last month. Some of the subjects reported drinking daily. One month following treatment, none (zero) of the enrolled subjects reported drinking more than three times per week. 28 of the 30 enrolled subjects reported drinking less than twice per week over the past month.
Intoxication by alcohol was also evaluated in the enrolled subjects. At baseline, 9 of the 30 enrolled subjects reported being intoxicated more than once over the last 30 days, with some subjects reporting being intoxicated for 25 of the last 30 days. One month following treatment, one participant reported four episodes of intoxication after reporting 23 episodes at baseline.

[3] = tested on: special operations veterans with combat and/or blast exposure; test: Hamilton-Anxiety Rating Scale (HAM-A)
Description: The pre-specified primary outcome was change in the World Health Organization Disability Assessment Schedule 2.0 (WHODAS) (Gold L. H. et al., J. Am. Acad. Psychiatry Law 42, 9 (2014)) from baseline to post-treatment, with change from baseline to the one-month follow-up a secondary outcome. Additional pre-specified secondary outcomes included post-treatment changes on the Clinician Administered PTSD Scale (CAPS-5; Weathers, F. W. et al., Psychol. Assess., 30, 383-395 (2018)), Montgomery-Åsberg Depression Rating Scale (MADRS; Montgomery, S. A., Br. J. Psychiatry J. Ment. Sci., 134, 382-389 (1979)) and the Hamilton-Anxiety Rating Scale (HAM-A; Bruss, G. S., et al., Psychiatry Res., 53, 191-202 (1994)). […] An additional dose of magnesium was administered approximately 12 hours later. To assess the significance of post-treatment changes, linear mixed effects (LME) models were used for each outcome measure. False Discovery Rate (FDR; Benjamini, Y. et al., J. R. Stat. Soc. Ser. B Methodol., 57, 289-300 (1995)) was applied to correct for multiple comparisons.
To further assess changes in comorbid psychiatric symptoms identified by the models, mean percent reduction, response rate, and remission rate according to the CAPS-5, MADRS and HAM-A (Table 1) were calculated. Response on the CAPS-5, MADRS, and HAM-A was defined as a reduction of at least 10 points (Mitchell, J. M. et al., Nat. Med. 27, 1025-1033(2021)), 50% (Leucht, S. et al., J. Affect. Disord. 210, 287-293 (2017)), and 50% (McIntyre, A. et al., Depress. Anxiety 24, 487-494 (2007)), respectively; remission as loss of diagnosis and a total score below 12 (Mitchell, J. M. et al. supra), <8 (Leucht, S. et al. supra), and <8(McIntyre, A. et al., supra), respectively. One participant's baseline scores met criteria for remission in all three scales and so were excluded from the calculation of response and remission rates, leaving 29 participants in these specific analyses.
With subjects in the fasting state, an intravenous infusion of 1 gram of magnesium sulfate was administered 1-2 hours prior to treatment. […] Medical staff (MD, RN, or EMT) were onsite at a ratio of at least 1 staff per 2 patients throughout treatment for monitoring and management, but no specific coaching or psychological support was provided during treatment.
Clinician administered scales included CAPS-5 (Clinician-administered PTSD Scale for DSM-5), which is a gold standard assessment of PTSD symptom severity; MADRS (Montgomery-Asberg Depression Rating Scale), a measure for depressive symptom severity: and Hamilton-Anxiety Rating Scale (HAM-A) (Shear, M. K. et al., Depress. Anxiety 13, 166-178 (2001)) a measure for anxiety symptom severity: SCID-5 (Structured Clinical Interview for DSM-5) Overview for a historical and environmental context of symptom presentation: MINI DSM-5 (Mini International Neuropsychiatric Interview from DSM-5) for a structured psychodiagnostics assessment: BAT-L (Boston Assessment of TBI-Lifetime) for a lifetime history of TBI and blast exposure: and Ohio State University TBI Identification Method (Short Form) for a lifetime history of TBI. MADRS testing provides an indication of depressive symptoms, CAPS-5 provides an indication of PTSD and SIGH-A provides an indication of anxiety. Collectively these overlap to provide indication of mood, concentration, sleep and tension.
To assess anxiety symptoms, the Hamilton Anxiety Rating Scale was used. This scale includes 14-items assessing both psychic and physical symptoms of anxiety. Items are rated on a scale from 0 (no symptoms) to 4 (severe symptoms). Total score ranges were: no or minimal anxiety (≤7), mild (8-14), moderate (15-23), and severe anxiety symptoms (≥24) (Matza et al., Int. J. Methods Psychiatr. Res. 19, 223-232 (2010))).

[4] = 1-mo. post, only participants meeting relevant MINI diagnostic criteria
[5] = 1-mo. post, only participants with mild TBI
[6] = 1-wk. post, only participants meeting relevant MINI diagnostic criteria
[7] = 1-wk. post, only participants with mild TBI

## CCC1CC2CC3c4[nH]c5ccc(OC)cc5c4CCN(C2)C13 (centres unmarked) [ibogaine, Ibogaine]
[1]
  changes in absolute cerebral blood flow: No significant changes
[2]; 23 episodes at baseline
  episodes of intoxication reported by one participant: four
[2]; 30 subjects, at baseline 11 of 30 drank at least four days per week
  enrolled subjects reporting drinking more than three times per week: zero
[2]; of the 30 enrolled subjects
  enrolled subjects reporting drinking less than twice per week over the past month: 28
[3]; [4]
  HAM-A % Reduction vs Baseline: 80% ± 23%
  HAM-A Remission Rate: 71%
  HAM-A Response Rate: 86%
[3]; 1-mo. post, only participants meeting relevant MINI diagnostic criteria at baseline (N 14), baseline 23.8 ± 7.6
  HAM-A score: 5.1
[3]; [5]
  HAM-A % Reduction vs Baseline: 82% ± 21%
  HAM-A Remission Rate: 85%
  HAM-A Response Rate: 93%
[3]; 1-mo. post, only participants with mild TBI (N 28), baseline 20.7 ± 8.6
  HAM-A score: 3.7
[3]; 1-wk post, only participants meeting relevant MINI diagnostic criteria at baseline (N 14), baseline 23.8 ± 7.6
  HAM-A score: 4.2
[3]; [6]
  HAM-A % Reduction vs Baseline: 82% ± 14%
  HAM-A Remission Rate: 86%
  HAM-A Response Rate: 100%
[3]; [7]
  HAM-A % Reduction vs Baseline: 82% ± 19%
  HAM-A Remission Rate: 89%
  HAM-A Response Rate: 96%
[3]; 1-wk. post, only participants with mild TBI (N 28), baseline 20.7 ± 8.6
  HAM-A score: 3.3
[3]; baseline vs 1-mo. post, only participants meeting relevant MINI diagnostic criteria (N 14)
  HAM-A, effect size D: 2.33
[3]; baseline vs 1-mo. post, only participants with mild TBI (N 28)
  HAM-A, effect size D: 2.07
[3]; baseline vs 1-wk post, only participants with mild TBI (N 28)
  HAM-A, effect size D: 2.02
[3]; baseline vs 1-wk. post, only participants meeting relevant MINI diagnostic criteria (N 14)
  HAM-A, effect size D: 2.52
[3]; baseline vs one-month post, all participants
  HAM-A, effect size D: 2.13
[3]; baseline vs one-week post, all participants
  HAM-A, effect size D: 2.06
[3]; four days after (immediate post) treatment, baseline about 21 (FIG. 5A)
  HAM-A anxiety symptom severity score: about 7
[3]; four days after treatment relative to baseline (FIG. 5A)
  HAM-A effect size: 1.81
[3]; one month post treatment (FIG. 5B)
  subjects scoring below the mild anxiety range (HAM-A): 90%
[3]; one month post treatment relative to baseline (FIG. 5A)
  HAM-A effect size: 1.82
[3]; one-month post, 29 participants, remission = score <8
  HAM-A Remission Rate: 83%
[3]; one-month post, 29 participants, response = reduction of at least 50%
  HAM-A Response Rate: 93%
[3]; one-month post, all participants, baseline 20.8 ± 8.5, mean ± SD
  HAM-A score: 3.9
[3]; one-month post, all participants, mean ± SD
  HAM-A % Reduction vs Baseline: 81% ± 21%
[3]; one-week post, 29 participants, remission = score <8
  HAM-A Remission Rate: 86%
[3]; one-week post, 29 participants, response = reduction of at least 50%
  HAM-A Response Rate: 97%
[3]; one-week post, all participants, baseline 20.8 ± 8.5, mean ± SD
  HAM-A score: 3.6
[3]; one-week post, all participants, mean ± SD
  HAM-A % Reduction vs Baseline: 81% ± 19%
